Assays:
[1] = target: EGFR L858R/T790M (H1975 cells) (Homo sapiens (Human), UniProt P00533, L858R/T790M); assay: Phospho-EGFR signaling immunoblot (1 hr), H1975 cells; assay type: cell-based; conditions: WT EGFR (A431) vs H1975
Experimental: (§1) A431 human epidermoid carcinoma, H1975 human NSCLC and HCC827 human NSCLC adenocarcinoma cells were obtained from the American Type Culture Center (Manassas, Va.). A431 cells were grown in DMEM (Invitrogen, Carlsbad, Calif.) supplemented with 10% FBS (HyClone, South Logan, Utah) and 1% Penicillin-Streptomycin (P/S, Lonza, Walkersville, Md.).
All primary antibodies were obtained from Cell Signaling (Danvers, Mass.) and used at 1:1000. Secondary antibodies were used at 1:10,000. Goat anti-mouse IgG IRDye 800CW antibody was obtained from LiCor Biosciences (Lincoln, Nebr.) and goat anti-rabbit IgG Alexa Fluor 680 was obtained from Invitrogen.
Cells were grown in 12-well plates (Corning, Coring, N.Y.) to 90% confluence and then incubated in low-serum (0.1% FBS) media for 16-18 hr. […] A431 cells were then stimulated with 50 ng/ml EGF (Peprotech, Rocky Hill, N.J.) for 15 min. After treatment, cell monolayers were washed with cold PBS (Invitrogen) and immediately lysed by scrapping into 60 uL cold Cell Extraction Buffer (Invitrogen) supplemented with Complete Protease inhibitors (Roche, Indianapolis, Ind.) and PhosphoSTOP (Roche) phosphatase inhibitors.
Phospho-protein signals were quantitated using Odyssey Infrared Imaging (Li-Cor Biosciences).
To assess phosphor-EGFR signaling, blots were probed with rabbit anti-Phospho-EGFR (Y1068) and mouse total anti-EGFR antibodies. Phospho-EGFR signal was normalized to total EGFR expression for each sample. […] Normalized data was fitted using a sigmoidal curve analysis program (Graph Pad Prism version 5) with variable Hill slope to determine the EC50 values.

[2] = system: HCC827 cells (EGFR delE746-A750); assay: Cell proliferation (CellTiter Glo, 72 hr), HCC827 cells; assay type: cell-based, human; conditions: proliferation, WT EGFR (A431) vs HCC827
Experimental: as §1
(§2) Cells were plated in Growth Media supplemented with 5% FBS and 1% P/S at a density of 3,000 cells per well in 96 well tissue culture plates (Corning). […] Growth inhibition (GI50) values were determined by Graph Pad Prism.

[3] = system: H1975 cells (EGFR L858R/T790M); assay: Cell proliferation (CellTiter Glo, 72 hr), H1975 cells; assay type: cell-based, human; conditions: proliferation, WT EGFR (A431) vs H1975
Experimental: as §1, §2

Row | Structure (SMILES) | Ratio WT/mutant [1] | Ratio WT/mutant [2] | Ratio WT/mutant [3]
1 | C=CC(=O)Nc1cccc(Nc2nc(Nc3ccc(N4CCN(C(=O)CO)CC4)cc3OC)ncc2C(F)(F)F)c1 [Compound I-6, N-(3-(2-(4-(4-(2-hydroxyacetyl)piperazin-1-yl)-2-methoxyphenylamino)-5-(trifluoromethyl)pyrimidin-4-ylamino)phenyl)acrylamide] | >20 | >40 | >10
2 | C=CC(=O)Nc1cccc(Nc2nc(Nc3ccc(N4CCCN(C(=O)OC(C)(C)C)CC4)cc3OC)ncc2C(F)(F)F)c1 [Compound I-44, tert-butyl 4-(4-(4-(3-acrylamidophenylamino)-5-(trifluoromethyl)pyrimidin-2-ylamino)-3-methoxyphenyl)-1,4-diazpane-1-carboxylate] | >5 | >5 | >5
3 | C=CC(=O)Nc1cccc(Nc2nc(Nc3ccc(N4CCN(C(C)=O)[C@H](C(=O)OC)C4)cc3OC)ncc2C(F)(F)F)c1 [Compound I-48, (S)-methyl 1-acetyl-4-(4-(4-(3-acrylamidophenylamino)-5-(trifluoromethyl)pyrimidin-2-ylamino)-3-methoxyphenyl)piperazine-2-carboxylate] | >50 | >15 | >10
4 | C=CC(=O)Nc1cccc(Oc2nc(Nc3ccc(N4CCN(C(=O)CO)CC4)cc3OC)ncc2C(F)(F)F)c1 [Compound I-11, N-(3-(2-(4-(4-(2-hydroxyacetyl)piperazin-1-yl)-2-methoxyphenylamino)-5-(trifluoromethyl)pyrimidin-4-yloxy)phenyl)acrylamide] | >15 | >45 | >5
5 | C=CC(=O)Nc1cccc(Nc2nc(Nc3ccc(N4CCN(C(C)=O)CC4)cc3OC(F)(F)F)ncc2C(F)(F)F)c1 [Compound I-33, N-(3-(2-(4-(4-acetylpiperazin-1-yl)-2-(trifluoromethoxy)phenylamino)-5-(trifluoromethyl)pyrimidin-4-ylamino)phenyl)acrylamide] | >50 | >15 | >30
6 | C=CC(=O)Nc1cccc(Nc2nc(Nc3ccc(N4CCN(C(=O)CO)CC4)cc3OC)ncc2Cl)c1 [Compound I-12, N-(3-(5-chloro-2-(4-(4-(2-hydroxyacetyl)piperazin-1-yl)-2-methoxyphenylamino)pyrimidin-4-ylamino)phenyl)acrylamide] | >1 | >30 | >1
7 | C=CC(=O)Nc1cccc(Nc2nc(Nc3ccc(N4CCS(=O)(=O)CC4)cc3OC)ncc2C(F)(F)F)c1 [Compound I-49, N-(3-(2-(2-methoxy-4,4-dioxo-4-thiomorpholinophenylamino)-5-(trifluoromethyl)pyrimidin-4-ylamino)phenyl)acrylamide] | >20 | >25 | >10
8 | C=CC(=O)Nc1cccc(Oc2nc(Nc3ccc(N4CCN(C(=O)CO)CC4)cc3OC)ncc2Cl)c1 [Compound I-3, N-(3-(5-chloro-2-(4-(4-(2-hydroxyacetyl)piperazin-1-yl)-2-methoxyphenylamino)pyrimidin-4-yloxy)phenyl)acrylamide] | >5 | >45 | >5
9 | C=CC(=O)Nc1cccc(Oc2nc(Nc3ccc(N4CCOCC4)cc3OC)ncc2C(F)(F)F)c1 [Compound I-1, N-(3-(2-(2-methoxy-4-morpholinophenylamino)-5-(trifluoromethyl)pyrimidin-4-yloxy)phenyl)acrylamide] | >50 | >15 | >15
10 | C=CC(=O)Nc1cccc(Nc2nc(Nc3ccc(N4CCN(C(=O)C(C)(C)C)CC4)cc3OC)ncc2C(F)(F)F)c1 [Compound I-34, N-(3-(2-(2-methoxy-4-(4-pivaloylpiperazin-1-yl)phenylamino)-5-(trifluoromethyl)pyrimidin-4-ylamino)phenyl)acrylamide] | >35 | >50 | >5
11 | C=CC(=O)Nc1cccc(Oc2nc(Nc3ccc(N4CCCN(C(=O)OC(C)(C)C)CC4)cc3OC)ncc2C(F)(F)F)c1 [Compound I-39, tert-butyl 4-(4-(4-(3-acrylamidophenoxy)-5-(trifluoromethyl)pyrimidin-2-ylamino)-3-methoxyphenyl)-1,4-diazepane-1-carboxylate] | – | >1 | <1
12 | C=CC(=O)Nc1cccc(Nc2nc(Nc3ccc(N4CCCN(C(=O)C(F)(F)F)CC4)cc3OC)ncc2C(F)(F)F)c1 [Compound I-19, N-(3-(2-(2-methoxy-4-(4-(2,2,2-trifluoroacetyl)-1,4-diazepan-1-yl)phenylamino)-5-(trifluoromethyl)pyrimidin-4-ylamino)phenyl)acrylamide] | – | >10 | >5
13 | C=CC(=O)Nc1cccc(Oc2nc(Nc3ccc(N4CCN(C(=O)OC(C)(C)C)CC4)cc3OCC)ncc2Cl)c1 [Compound I-18, tert-butyl 4-(4-(4-(3-acrylamidophenoxy)-5-chloropyrimidin-2-ylamino)-3-ethoxyphenyl)piperazine-1-carboxylate] | – | >5 | >1
14 | C=CC(=O)Nc1cccc(Nc2nc(Nc3ccc(N4CCN(S(C)(=O)=O)CC4)cc3OC)ncc2Cl)c1 [Compound I-41, N-(3-(5-chloro-2-(2-methoxy-4-(4-(methylsulfonyl)piperazin-1-yl)phenylamino)pyrimidin-4-ylamino)phenyl)acrylamide] | >1 | >20 | >1
15 | C=CC(=O)Nc1cccc(Nc2nc(Nc3ccc(N4CCN(C(=O)NC)CC4)cc3OC)ncc2C(F)(F)F)c1 [Compound I-28, 4-(4-(4-(3-acrylamidophenylamino)-5-(trifluoromethyl)pyrimidin-2-ylamino)-3-methoxyphenyl)-N-methylpiperazine-1-carboxamide] | – | >50 | >5
16 | C=CC(=O)Nc1cccc(Oc2nc(Nc3ccc(N4CCOCC4)cc3OC)ncc2Cl)c1 [Compound I-5, N-(3-(5-chloro-2-(2-methoxy-4-morpholinophenylamino)pyrimidin-4-yloxy)phenyl)acrylamide] | >30 | >20 | >5
17 | C=CC(=O)Nc1cccc(Nc2nc(Nc3ccc(N4CCN(C(C)=O)CC4)cc3OC)ncc2Br)c1 [Compound I-40, N-(3-(2-(4-(4-acetylpiperazin-1-yl)-2-methoxyphenylamino)-5-bromopyrimidin-4-ylamino)phenyl)acrylamide] | >1 | >10 | >5
18 | C=CC(=O)Nc1cccc(Oc2nc(Nc3ccc(N4CCN(S(C)(=O)=O)CC4)cc3OC)ncc2C(F)(F)F)c1 [Compound I-22, N-(3-(2-(2-methoxy-4-(4-(methylsulfonyl)piperazin-1-yl)phenylamino)-5-(trifluoromethyl)pyrimidin-4-yloxy)phenyl)acrylamide] | >35 | >35 | >10
19 | C=CC(=O)Nc1cccc(Oc2nc(Nc3ccc(N4CCN(C(=O)NC)CC4)cc3OC)ncc2C(F)(F)F)c1 [Compound I-21, 4-(4-(4-(3-acrylamidophenoxy)-5-(trifluoromethyl)pyrimidin-2-ylamino)-3-methoxyphenyl)-N-methylpiperazine-1-carboxamide] | >5 | >20 | >1
20 | C=CC(=O)Nc1cccc(Oc2nc(Nc3ccc(N4CCN(S(C)(=O)=O)CC4)cc3OC)ncc2Cl)c1 [Compound I-26, N-(3-(5-chloro-2-(2-methoxy-4-(4-(methylsulfonyl)piperazin-1-yl)phenylamino)pyrimidin-4-yloxy)phenyl)acrylamide] | >40 | >35 | >1
21 | C=CC(=O)Nc1cccc(Oc2nc(Nc3ccc(N4CCCOCC4)cc3OC)ncc2Cl)c1 [Compound I-37, N-(3-(5-chloro-2-(2-methoxy-4-(1,4-oxazepan-4-yl)phenylamino)pyrimidin-4-yloxy)phenyl)acrylamide] | – | >10 | >1
22 | C=CC(=O)Nc1cccc(Oc2nc(Nc3ccc(N4CCN(S(N)(=O)=O)CC4)cc3OC)ncc2C(F)(F)F)c1 [Compound I-27, N-(3-(2-(2-methoxy-4-(4-sulfamoylpiperazin-1-yl)phenylamino)-5-(trifluoromethyl)pyrimidin-4-yloxy)phenyl)acrylamide] | – | >10 | >1
